US20240082263A1, “PHARMACEUTICAL COMPOSITION FOR COMBINATION THERAPY COMPRISING MELATONIN AND PROSTAGLANDIN E2 FOR TREATING INTESTINAL EPITHELIAL INJURY AS AN ACTIVE INGREDIENT” (PUSAN NATIONAL UNIVERSITY INDUSTRY-UNIVERSITY COOPERATION …, priority 2022, published 2024)

How the values were obtained:
Assay type in all cases: cell-based
[1] = test system: mouse small intestine epithelial organoids; assay: Flow cytometry of Ly6a-expressing cells in organoids; conditions: FIG. 2; for revival stem cell induction (ratio of Ly6a-expressing cells): flow cytometry, 2-iodomelatonin 200 μM, 8M-PDOT 200 μM, Butaprost 10 μM, Cay10598 10 μM, 5 days; for effect of receptor inhibitor on induction of revival stem cells: co-treated to PGE2 alone group and 8M-PDOT and PGE2 combined group, L-161,982 10 μM, PF-04418948 20 μM
Experimental: (§1) Mouse-derived small intestinal epithelial organoids were obtained as follows. First, small intestine tissue (duodenum about 10-15 cm) was isolated from 8-week-old C57BL/6N mice, and the intestinal lumen was washed with PBS using a 1 ml pipette tip, and the tissue was opened with the lumen facing up, and the remaining mucus, food, and intestinal villi were scraped off and removed. Thereafter, about 25 ml of PBS was filled in a 50 ml tube, and the intestinal tissue was cut to a length of about 2 to 4 mm and washed by shaking vigorously (repeated about 3 to 4 times). The washed intestinal tissue was suspended in 20 ml of Gentle cell dissociation reagent (100-0485, stemcell technologies) and reacted for 15 to 20 minutes while shaking at 20 rpm at room temperature. After the reaction was completed, crypts were separated from the intestinal tissue by vortexing at maximum speed for 5 seconds, and the tissue was removed and centrifuged at 290 g for 5 minutes. The collected cell pellet was resuspended in 10 ml of PBS, centrifuged at 290 g for 5 minutes, and then the cell pellet was suspended in DMEM/F12 medium to confirm the number of crypts. About 500 crypts per 24 well are mixed with 20 μl of cell culture medium (IntestiCult™ Organoid Growth Medium for Mouse, 05005, stemcell technologies) and 20 μl of Matrigel (354230, corning), planted in a dome shape in the center of the well, and placed in a cell culture incubator. After standing for 10 minutes and waiting for the gel to harden, 750 μl of IntestiCult was added and cultured.
In addition, changes in the percentage of cells expressing Ly6a, a specific marker for revival stem cells, were evaluated by flow cytometry. For flow cytometry, mouse small intestine epithelial organoids were treated with melatonin (500 μM) and PGE2 (100 nM) alone or in combination for 5 days, and the organoids were reacted with TrypLE™ Express Enzyme (Thermo Fisher) for 5 minutes at 37° C. to produce single cells. Thereafter, the Ly6a antibody (12-5981-82, Thermo Fisher) fluorescently labeled with PE was diluted 1:250 in PBS containing 3% BSA, and 200 μl of the diluted solution was mixed with the single celled sample and allowed to stand in a dark room at 4° C. for 1 hour. Then, each sample was washed with PBS (300 g, centrifuged for 5 minutes) and immediately analyzed with an Accuri C6 flow cytometer.
In order to further specify the mechanism of inducing revival stem cells, mouse-derived intestinal epithelial organoids were treated with a combination of various melatonin analogues and a specific agonist of the PGE2 receptor. […]

[2] = test system: Mouse-derived small intestinal epithelial organoids; assay: Microarray gene expression of revival stem cell markers in organoids; conditions: melatonin 500 μm, PGE2 100 nM, alone or in combination, 5 days
Experimental: as §1
The obtained mouse-derived small intestinal epithelial organoids were treated with melatonin (500 μm, 14427, Cayman) and PGE2 (prostaglandin E2, 100 nM; 14010, Cayman) alone or in combination for 5 days, and microarray was performed to track gene expression changes. RNA was extracted from the organoids using the RNeasy Kit (Qiagen), cDNA was synthesized using the GeneChip WT (Whole Transcript) Amplification kit, and analyzed using the Clariom™ S Affymetrix GeneChip Array (Affymetrix).

[3] = test system: Human-derived intestinal epithelial organoids; assay: Quantitative PCR of Clusterin (CLU) expression in organoids; conditions: same concentrations as in the mouse experiment, FIG. 3
Experimental: Human-derived intestinal epithelial organoids were treated with melatonin and its analogues and PGE2 to confirm whether revival stem cells were induced as observed in mouse intestinal organoids. In order to obtain intestinal epithelial organoids, donated human colon tissue was cut into a size of about 1 cm 2, placed in PBS containing gentamicin (10 μg/ml, Gibco), and allowed to stand at 4° C. for 30 minutes. Then, the tissue was taken out and the mucous layer was scraped off using forceps, and the process of shaking and washing in PBS was repeated 5 to 6 times, as in the case of mice. After washing, the tissue was put into 25 ml of Gentle cell dissociation reagent and reacted by shaking at 200 rpm for 20 minutes at 37° C. After vortexing at the maximum speed, the crypts were separated and cultured by washing in the same process as in mice. At this time, IntestiCult™ Organoid Growth Medium for Human (06010, stemcell technologies) was used as the culture medium. The obtained human intestinal epithelial organoids were treated alone or in combination with melatonin, 8M-PDOT, and PGE2 at the same concentrations as in the mouse experiment, and then the expression level of Clusterin (CLU) was compared through quantitative PCR. […]

| Compound | revival stem cell induction (ratio of Ly6a-expressing cells) [1] | Cldn4 expression FC (fold change) vs control [2] | Clu expression FC (fold change) vs control [2] | Ly6a expression FC (fold change) vs control [2] | effect of receptor inhibitor on induction of revival stem cells [1] | also measured |
| --- | --- | --- | --- | --- | --- | --- |
| CCCC1([C@H](O)C/C=C/[C@H]2[C@H](O)CC(=O)[C@@H]2CCCCCCC(=O)OC)CCC1 [Butaprost] | did not show a specific induction effect | – | – | – | – | – |
| COc1ccc2[nH]cc(CCNC(C)=O)c2c1 [melatonin] | – | 1.0013 | 1.2252 | 1.1646 | – | – |
| CCCCc1nn(-c2ccccc2C(F)(F)F)c(=O)n1Cc1ccc(-c2ccccc2S(=O)(=O)NC(=O)c2sccc2C)cc1 [L-161,982] | – | – | – | – | greatly suppressed | – |
| O=C1CC[C@H](/C=C/[C@@H](O)Cc2ccccc2)N1CCCCCCc1nn[nH]n1 [Cay10598] | induction effect similar to or higher than that of PGE2 | – | – | – | – | – |
| CCCCC[C@H](O)/C=C/[C@H]1[C@H](O)CC(=O)[C@@H]1C/C=C\CCCC(=O)O [PGE2, prostaglandin E2] | – | 1.9264 | 1.7590 | 9.7349 | – | CLU expression [3]: increased |
| COc1ccc2cc(OCC3(C(=O)O)CN(C(=O)c4ccc(F)cc4)C3)ccc2c1 [PF-04418948] | – | – | – | – | no effect | – |
